Source: patent publication US9273077B2, “Phosphorus derivatives as kinase inhibitors” (ARIAD Pharmaceuticals, Inc., priority 2008, dated 2016)

Biological target: T1, ALK (Homo sapiens, UniProt Q9UM73)
T1 construct: Kinases are expressed as either kinase domains or full length constructs fused to glutathione S-transferase (GST) or polyHistidine tagged fusion proteins; made in house; host or cells: E. coli or Baculovirus-High Five (not specified which for ALK)
Test: inhibitory potency against ALK (kinase inhibition assay)
Assay type: biochemical
Excerpt: More specifically, the compounds described herein are screened for kinase inhibition activity as follows. Kinases suitable for use in the following protocol include, but are not limited to: ALK, Jak2, b-Raf, c-Met, Tie-2, FLT3, Abl, Lck, Lyn, Src, Fyn, Syk, Zap-70, Itk, Tec, Btk, EGFR, ErbB2, Kdr, FLT1, Tek, InsR, and AKT.
Kinases are expressed as either kinase domains or full length constructs fused to glutathione S-transferase (GST) or polyHistidine tagged fusion proteins in either E. coli or Baculovirus-High Five expression systems. They are purified to near homogeneity by affinity chromatography as previously described (Lehr et al., 1996; Gish et al., 1995). In some instances, kinases are co-expressed or mixed with purified or partially purified regulatory polypeptides prior to measurement of activity.
Kinase activity and inhibition can be measured by established protocols (see e.g., Braunwalder et al., 1996). In such cases, the transfer of ^33PO4 from ATP to the synthetic substrates poly(Glu, Tyr) 4:1 or poly(Arg, Ser) 3:1 attached to the bioactive surface of microtiter plates is taken as a measure of enzyme activity. After an incubation period, the amount of phosphate transferred is measured by first washing the plate with 0.5% phosphoric acid, adding liquid scintillant, and then counting in a liquid scintillation detector. The IC50 is determined by the concentration of compound that causes a 50% reduction in the amount of ^33P incorporated onto the substrate bound to the plate.
For example, in one method, compounds can be tested for their ability to inhibit kinase activity of baculovirus-expressed ALK using a modification of the ELISA protocol reported for trkA in Angeles, T. S. et al., Anal. Biochem. 1996, 236, 49-55, which is incorporated herein by reference. Phosphorylation of the substrate, phopholipase C-gamma (PLC- ? ) generated as a fusion protein with glutathione-S-transferase (GST) as reported in rotin, D. et al., EMBO J. 1992, 11, 559-567, which is incorporated by reference, can be detected with europium-labeled anti-phosphotyrosine antibody and measured by time-resolved fluorescence (TRF). […] Detection of the phosphorylated product can be performed by adding 100 ? L/well of Eu-N1 labeled PT66 antibody (Perkim Elmer #AD0041). Incubation at 37 degrees C. then proceeds for one hour, followed by addition of 100 ? L enhancement solution (for example Wallac #1244-105). The plate is gently agitated and after thirty minutes, the fluorescence of the resulting solution can be measured (for example using EnVision 2100 (or 2102) multilabel plate reader from Perkin Elmer).
Data analysis can then be performed. IC50 values can be calculated by plotting percent inhibition versus log10 of concentration of compound.
The inhibition of ALK tyrosine kinase activity can also be measured using the recombinant kinase domain of the ALK in analogy to VEDG-R kinase assay described in J. Wood et al., Cancer Res 2000, 60, 2178-2189. In vitro enzyme assays using GST-ALK protein tyrosine kinase can be performed in 96-well plate as a filter binding assay in 20 mMTris.HCl, pH 7.5, 3 mM MgCl2, 10 mM MnCl2, […], 0.1 ? Ci/assay (=30 ? L) [ ? -^33P]-ATP, 2 ? M ATP, 3 ? g/mL poly (Glu, tyr 4:1) Poly-EY (sigma P-0275), 1% DMSO, 25 ng ALK enzyme. Assays can be incubated for 10 min, at ambient temperature. Reactions can be terminated by adding 50 ? L of 125 mM EDTA, and the reaction mixture can be transferred onto a MAIP Multiscreen plate (Millipore, Bedford, Mass.) previously wet with methanol, and rehydrated for 5 minutes with water. Following washing (0.5% H3PO4), plates can be counted in a liquid scintillation counter. IC50 values are calculated by linear regression analysis of the percentage inhibition.

T1 sequence (Q9UM73 19-1620): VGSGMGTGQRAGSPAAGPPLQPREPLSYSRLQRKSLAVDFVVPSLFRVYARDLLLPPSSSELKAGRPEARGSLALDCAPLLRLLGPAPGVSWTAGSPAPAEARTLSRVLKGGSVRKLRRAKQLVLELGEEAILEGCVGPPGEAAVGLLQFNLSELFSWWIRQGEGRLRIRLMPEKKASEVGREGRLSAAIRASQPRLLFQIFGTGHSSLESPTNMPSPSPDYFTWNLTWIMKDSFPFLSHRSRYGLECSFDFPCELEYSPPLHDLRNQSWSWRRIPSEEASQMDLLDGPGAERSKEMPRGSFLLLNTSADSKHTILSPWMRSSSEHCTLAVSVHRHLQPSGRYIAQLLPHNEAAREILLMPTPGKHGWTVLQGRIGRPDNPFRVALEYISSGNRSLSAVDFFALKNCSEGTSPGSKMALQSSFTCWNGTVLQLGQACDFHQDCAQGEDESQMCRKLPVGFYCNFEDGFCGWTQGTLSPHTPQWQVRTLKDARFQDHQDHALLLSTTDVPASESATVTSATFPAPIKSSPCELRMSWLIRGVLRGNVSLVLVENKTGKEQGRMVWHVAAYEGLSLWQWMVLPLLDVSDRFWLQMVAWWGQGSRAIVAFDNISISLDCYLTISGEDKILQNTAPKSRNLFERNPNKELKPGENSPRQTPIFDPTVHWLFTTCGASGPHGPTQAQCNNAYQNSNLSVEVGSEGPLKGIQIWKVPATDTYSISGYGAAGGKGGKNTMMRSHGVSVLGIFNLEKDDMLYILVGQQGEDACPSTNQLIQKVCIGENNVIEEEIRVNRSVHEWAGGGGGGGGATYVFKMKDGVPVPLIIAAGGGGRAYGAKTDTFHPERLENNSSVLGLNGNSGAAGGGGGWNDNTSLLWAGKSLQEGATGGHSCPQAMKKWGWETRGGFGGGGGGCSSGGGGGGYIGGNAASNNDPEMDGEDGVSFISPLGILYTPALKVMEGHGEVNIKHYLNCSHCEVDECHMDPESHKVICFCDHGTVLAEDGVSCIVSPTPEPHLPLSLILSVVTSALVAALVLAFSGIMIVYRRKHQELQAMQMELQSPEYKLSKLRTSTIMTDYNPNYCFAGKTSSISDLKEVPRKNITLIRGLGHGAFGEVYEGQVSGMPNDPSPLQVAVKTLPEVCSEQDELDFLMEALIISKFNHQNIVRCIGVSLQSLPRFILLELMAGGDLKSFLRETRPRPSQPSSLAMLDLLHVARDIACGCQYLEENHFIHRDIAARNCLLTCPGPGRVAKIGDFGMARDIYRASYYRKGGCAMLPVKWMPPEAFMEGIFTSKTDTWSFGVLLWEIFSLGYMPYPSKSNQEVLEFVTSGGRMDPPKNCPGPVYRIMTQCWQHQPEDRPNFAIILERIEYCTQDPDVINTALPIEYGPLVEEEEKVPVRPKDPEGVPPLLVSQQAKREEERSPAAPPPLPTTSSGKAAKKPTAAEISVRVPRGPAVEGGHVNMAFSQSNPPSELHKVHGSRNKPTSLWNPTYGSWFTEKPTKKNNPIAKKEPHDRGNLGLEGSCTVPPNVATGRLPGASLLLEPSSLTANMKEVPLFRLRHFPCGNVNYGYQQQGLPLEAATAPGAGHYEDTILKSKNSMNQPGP

Q: For `COc1cc(P(C)(C)=O)ccc1Nc1nccc(Nc2ccccc2S(=O)(=O)C(C)C)n1` [Example 20, N^2-[4-(dimethylphosphoryl)-2-methoxyphenyl]-N^4-[2-(propan-2-ylsulfonyl)phenyl]pyrimidine-2,4-diamine], which IC50 is on record?
A: Its IC50 is > 10 nM.

Q: `COc1cc(P(C)(C)=O)ccc1Nc1ncc(C)c(Nc2ccccc2S(=O)(=O)C(C)C)n1` [Example 21, N^2-[4-(Dimethylphosphoryl)-2-methoxyphenyl]-5-methyl-N^4-[2-(propan-2-ylsulfonyl)phenyl]pyrimidine-2,4-diamine] was tested. Which IC50 did it give?
A: The IC50 was 2 to 10 nM.

Q: How did the IC50 turn out when `COc1cc(P(C)(C)=O)ccc1Nc1nc(Nc2ccccc2S(=O)(=O)C(C)C)c2cc[nH]c2n1` [Example 31, N^2-[4-(dimethylphosphoryl)-2-methoxyphenyl]-N^4-[2-(propan-2-ylsulfonyl)phenyl]-7H-pyrrolo[2,3-d]pyrimidine-2,4-diamine] was run?
A: Its IC50 is < 2 nM.

Q: Which IC50 does the source give for `CP(C)(=O)c1ccc(Nc2ncc(C(F)(F)F)c(NN3CCOCC3)n2)cc1` [Example 8, N^2-[4-(dimethylphosphoryl)phenyl]-N^4-(morpholin-4-yl)-5-(trifluoromethyl)pyrimidine-2,4-diamine] here?
A: Its IC50 is > 10 nM.

Q: `CC(C)S(=O)(=O)c1ccccc1Nc1nc(Nc2ccc(P(C)(C)=O)cc2OC(F)(F)F)ncc1Cl` [Example 25, 5-Chloro-N^2-[4-(dimethylphosphoryl)-2-(trifluoromethoxy)phenyl]-N^4-[2-(propan-2-ylsulfonyl)phenyl]pyrimidine-2,4-diamine] was tested. Which IC50 did it give?
A: The IC50 was < 2 nM.

Q: With `CP(C)(=O)c1ccc(Nc2ncc(C(F)(F)F)c(NC3CCCO3)n2)cc1` (stereo not shown) [Example 6, N^2-[4-(dimethylphosphoryl)phenyl]-N^4-(tetrahydrofuran-2-yl)-5-(trifluoromethyl)pyrimidine-2,4-diamine] as the compound, how does the IC50 read?
A: The IC50 was > 10 nM.

Q: Which IC50 does the source give for `CC(C)S(=O)(=O)c1ccccc1Nc1nc(Nc2ccc(P(C)(C)=O)cc2F)ncc1Cl` [Example 27, 5-Chloro-N^2-[4-(dimethylphosphoryl)-2-fluorophenyl]-N^4-[2-(propan-2-ylsulfonyl)phenyl]pyrimidine-2,4-diamine] here?
A: The IC50 was 2 to 10 nM.

Q: Which IC50 does the source give for `COc1cc(P(C)(C)=O)ccc1Nc1ncc2[nH]c(=O)n(-c3ccccc3S(=O)(=O)C(C)C)c2n1` [Example 29, 2-{[4-(dimethylphosphoryl)-2-methoxyphenyl]amino}-9-[2-(propan-2-ylsulfonyl)phenyl]-7,9-dihydro-8H-purin-8-one] here?
A: Its IC50 is > 10 nM.

Q: Which IC50 does the source give for `Cc1cc(C)cc(Nc2nc(Nc3ccc(P(C)(C)=O)cc3)ncc2C(F)(F)F)c1` [Example 14, N^4-(3,5-dimethylphenyl)-N^2-[4-(dimethylphosphoryl)phenyl]-5(trifluoromethyl)pyrimidine-2,4-diamine] here?
A: Its IC50 is > 10 nM.

Q: Which IC50 does the source give for `Cc1cc(P(C)(C)=O)ccc1Nc1ncc(Cl)c(Nc2ccccc2S(=O)(=O)C(C)C)n1` [Example 23, 5-Chloro-N^2-[4-(dimethylphosphoryl)-2-methylphenyl]-N-[2-(propan-2-ylsulfonyl)phenyl]pyrimidine-2,4-diamine] here?
A: Its IC50 is < 2 nM.

Q: Which IC50 does the source give for `COc1nc(P(C)(C)=O)ccc1Nc1ncc(Cl)c(Nc2ccccc2S(=O)(=O)C(C)C)n1` [Example 32, 5-chloro-N^2-[6-(dimethylphosphoryl)-2-methoxypyridin-3-yl]-N^4-[2-(propan-2-ylsulfonyl)phenyl]pyrimidine-2,4-diamine] here?
A: Its IC50 is < 2 nM.

Q: How did the IC50 turn out when `CP(C)(=O)c1ccc(Nc2ncc(C(F)(F)F)c(NN3CC4CCCC4C3)n2)cc1` (stereo not shown) [Example 7, N^2-[4-(dimethylphosphoryl)phenyl]-N^4-(hexahydrocyclopenta[c]pyrrol-2(1H)-yl)-5-(trifluoromethyl)pyrimidine-2,4-diamine] was run?
A: The IC50 was > 10 nM.

Q: How did the IC50 turn out when `CP(C)(=O)c1ccc(Nc2ncc(C(F)(F)F)c(NC34CC5CC(CC(C5)C3)C4)n2)cc1` [Example 2, N^2-[4-(dimethylphosphoryl)phenyl]-N′-(tricyclo[3.3.1.1^3,7]dec-1-yl)-5-(trifluoromethyl)pyrimidine-2,4-diamine] was run?
A: The IC50 was > 10 nM.

Q: `CC(C)S(=O)(=O)c1ccccc1Nc1nc(Nc2ccc(P(C)(C)=O)cc2Cl)ncc1Cl` [Example 26, 5-Chloro-N^2-[2-chloro-4-(dimethylphosphoryl)phenyl]-N^4-[2-(propan-2-ylsulfonyl)phenyl]pyrimidine-2,4-diamine] was tested. Which IC50 did it give?
A: Its IC50 is < 2 nM.

Q: Which IC50 does the source give for `COc1ccc(P(C)(C)=O)cc1Nc1ncc(Cl)c(Nc2ccccc2S(=O)(=O)C(C)C)n1` [Example 22, 5-Chloro-N^2-[5-(dimethylphosphoryl)-2-methoxyphenyl]-N^4-[2-(propan-2-ylsulfonyl)phenyl]pyrimidine-2,4-diamine] here?
A: The IC50 was 2 to 10 nM.

Q: Which IC50 does the source give for `COc1cc(P2(=O)CCNCC2)ccc1Nc1nccc(Nc2ccccc2S(=O)(=O)C(C)C)n1` [Example 30, N^2-[2-methoxy-4-(4-oxido-1,4-azaphosphinan-4-yl)phenyl]-N^4-[2-(propan-2-ylsulfonyl)phenyl]pyrimidine-2,4-diamine] here?
A: The IC50 was 2 to 10 nM.

Q: How did the IC50 turn out when `CN1CCN(c2ccc(CNc3nc(Nc4ccc(P(C)(C)=O)cc4)ncc3C(F)(F)F)cc2)CC1` [Example 13, N^2-[4-(dimethylphosphoryl)phenyl]-N^4-[4-(4-methylpiperazin-1-yl)benzyl]-5-(trifluoromethyl)pyrimidine-2,4-diamine] was run?
A: The IC50 was > 10 nM.

Q: How did the IC50 turn out when `COc1nc(P(C)(C)=O)cnc1Nc1ncc(Cl)c(Nc2ccccc2S(=O)(=O)C(C)C)n1` [Example 33, 5-chloro-N^2-[5-(dimethylphosphoryl)-3-methoxypyrazin-2-yl]-N^4-[2-(propan-2-ylsulfonyl)phenyl]pyrimidine-2,4-diamine] was run?
A: Its IC50 is > 10 nM.

Q: `COc1cc(P(C)(C)=O)ccc1Nc1ncc(C(F)(F)F)c(Nc2ccccc2S(=O)(=O)C(C)C)n1` [Example 16, N^2-[4-(dimethylphosphoryl)-2-methoxyphenyl]-N^4-[2-(propan-2-ylsulfonyl)phenyl]-5-(trifluoromethyl)pyrimidine-2,4-diamine] was tested. Which IC50 did it give?
A: Its IC50 is 2 to 10 nM.

Q: `COc1cc(P(C)(C)=O)ccc1Nc1ncc(Cl)c(Nc2ccccc2S(=O)(=O)C(C)C)n1` [Example 17, 5-chloro-N-[4-(dimethylphosphoryl)-2-methoxyphenyl]-N^4-[2-(propan-2-ylsulfonyl)phenyl]pyrimidine-2,4-diamine] was tested. Which IC50 did it give?
A: The IC50 was < 2 nM.

Q: For `COc1cc(N2CCC(N3CCN(C)CC3)CC2)ccc1Nc1ncc(Cl)c(Nc2ccc(P(C)(C)=O)cc2)n1` [Example 19, 5-chloro-N^4-[4-(dimethylphosphoryl)phenyl]-N^2-{2-methoxy-4-[4-(4-methylpiperazin-1-yl)piperidin-1-yl]phenyl}pyrimidine-2,4-diamine], which IC50 is on record?
A: Its IC50 is > 10 nM.

Q: For `CN1CCN(Nc2nc(Nc3ccc(P(C)(C)=O)cc3)ncc2C(F)(F)F)CC1` [Example 11, N^2-[4(dimethylphosphoryl)phenyl]-N^4-(4-methylpiperazin-1-yl)-5-(trifluoromethyl) pyrimidine-2,4-diamine], which IC50 is on record?
A: Its IC50 is > 10 nM.

Q: With `CP(C)(=O)c1ccc(Nc2ncc(C(F)(F)F)c(NCCc3c[nH]c4ccccc34)n2)cc1` [Example 10, N^2-[4-(dimethylphosphoryl)phenyl]-N^4-[2-(1H-indol-3-yl)ethyl]-5-(trifluoromethyl)pyrimidine-2,4-diamine] as the compound, how does the IC50 read?
A: The IC50 was > 10 nM.

Q: With `COc1cc(P(C)(C)=O)ccc1Nc1ncc(Cl)c(Nc2ccccc2)n1` [Example 15, 5-chloro-N^2-[4-(dimethylphosphoryl)-2-methoxyphenyl]-N^4-phenylpyrimidine-2,4-diamine] as the compound, how does the IC50 read?
A: The IC50 was > 10 nM.

Q: For `CP(C)(=O)c1ccc(Nc2ncc(C(F)(F)F)c(NCCc3ccc(S(N)(=O)=O)cc3)n2)cc1` [Example 5, 4-(2-{[2-{[4-(dimethylphosphoryl)phenyl]amino}-5-(trifluoromethyl)pyrimidin-4-yl]amino}ethyl)benzenesulfonamide], which IC50 is on record?
A: Its IC50 is > 10 nM.
